Laboratory results from article PMC13210772, “Dual FLT3/MAPK14 Proteolysis-Targeting Chimera (PROTAC) Induces Potent Acute Myeloid Leukemia Cell Death” (Pharmaceuticals, 2026).

Legend:
Test in all cases: NanoBRET CELLinib128
Type in all cases: binding
[1] = molecular target: T1, FGFR2 (Homo sapiens, UniProt P21802); conditions: 100% no effect, 0% complete tracer displacement, read-out: Tracer bound
T1 construct: Full-length kinase ORF (Promega, Madison, WI, USA) cloned in frame with a NanoLuc-vector was transfected into HEK293T cells; host or cells: HEK293T
Procedure: (§1) To get an impression about the binding strength of the PROTAC MA191 and the reference inhibitor MA68 to other kinases besides FLT3-ITD the binding on a kinase panel of further 128 representative protein kinases at 1 μM concentration was tested using the NanoBRET^TM cellular target engagement assay (CELLinib128 assay, CELLinib GmbH, Frankfurt, Germany). […] In none of the 128 kinases MA191 was able to displace the tracer (inhibitor) used by more than 50%, Table S1, Supplementary Information).
(§2) The CELLinib128 assay was performed by CELLinib GmbH, Frankfurt (Germany) as described previously. In brief: Full-length kinase ORF (Promega, Madison, WI, USA) cloned in frame with a NanoLuc-vector was transfected into HEK293T cells in Opti-MEM without phenol red (Life Technologies, Carlsbad, CA, USA) at a density of 2 × 10^5 cells/mL using FuGENE HD (Promega, E2312) and proteins were allowed to express for 20 h. For CDKs, where indicated below, an excess of an activator without an NLuc-fusion was cotransfected. […] The system was allowed to equilibrate at 37 °C for 2 h and 5% CO2 prior to BRET measurements. For PKCs, a chemical activator PMA was added in a final concentration of 1 µM was added together with test compounds and tracers (Promega, V1171). To measure BRET, NanoBRET^TM NanoGlo substrate + extracellular NanoLuc inhibitor (Promega, N2160) were added as per the manufacturer’s protocol, and filtered luminescence was measured (450 nm BP filter (donor) and 610 nm LP filter (acceptor)). For the 1-shot test compounds, data were normalized to the tracer control and the background control or control compound plateau and an average and SD were calculated. […] For the control compounds competitive displacement data were normalized to the tracer Ctrl and the background Ctrl and then plotted and fitted using GraphPad Prism 10 software using a normalized 3-parameter curve fit with the following equation: Y = 100/(1 + 10^X−LogIC50).

[2] = molecular target: T2, LATS1 (Homo sapiens, UniProt O95835); conditions: 100% no effect, 0% complete tracer displacement, read-out: Tracer bound
T2 construct: Full-length kinase ORF (Promega, Madison, WI, USA) cloned in frame with a NanoLuc-vector was transfected into HEK293T cells; host or cells: HEK293T
Procedure: as §1, §2

[3] = molecular target: T3, MAP4K3 (Homo sapiens, UniProt Q8IVH8); conditions: 1 µM; 100% no effect, 0% complete tracer displacement
T3 construct: Full-length kinase ORF (Promega, Madison, WI, USA) cloned in frame with a NanoLuc-vector was transfected into HEK293T cells; host or cells: HEK293T
Procedure: as §1, §2

[4] = molecular target: T4, STK36 (Homo sapiens, UniProt Q9NRP7); conditions: 100% no effect, 0% complete tracer displacement, read-out: Tracer bound
T4 construct: Full-length kinase ORF (Promega, Madison, WI, USA) cloned in frame with a NanoLuc-vector was transfected into HEK293T cells; host or cells: HEK293T
Procedure: as §1, §2

[5] = molecular target: T5, MLTK (Homo sapiens, UniProt Q9NYL2); conditions: 100% no effect, 0% complete tracer displacement, read-out: Tracer bound
T5 construct: Full-length kinase ORF (Promega, Madison, WI, USA) cloned in frame with a NanoLuc-vector was transfected into HEK293T cells; host or cells: HEK293T
Procedure: as §1, §2

[6] = molecular target: T6, MAPK6 (Homo sapiens, UniProt Q16659); conditions: 100% no effect, 0% complete tracer displacement, read-out: Tracer bound
T6 construct: Full-length kinase ORF (Promega, Madison, WI, USA) cloned in frame with a NanoLuc-vector was transfected into HEK293T cells; host or cells: HEK293T
Procedure: as §1, §2

[7] = molecular target: T7, RPS6KA6 (Homo sapiens, UniProt Q9UK32); conditions: 1 µM; 100% no effect, 0% complete tracer displacement
T7 construct: Full-length kinase ORF (Promega, Madison, WI, USA) cloned in frame with a NanoLuc-vector was transfected into HEK293T cells; host or cells: HEK293T
Procedure: as §1, §2

[8] = molecular target: T8, PRKACB (Homo sapiens, UniProt P22694); conditions: 100% no effect, 0% complete tracer displacement, read-out: Tracer bound
T8 construct: Full-length kinase ORF (Promega, Madison, WI, USA) cloned in frame with a NanoLuc-vector was transfected into HEK293T cells; host or cells: HEK293T
Procedure: as §1, §2

[9] = molecular target: T9, CAMK2A (Homo sapiens, UniProt Q9UQM7); conditions: 100% no effect, 0% complete tracer displacement, read-out: Tracer bound
T9 construct: Full-length kinase ORF (Promega, Madison, WI, USA) cloned in frame with a NanoLuc-vector was transfected into HEK293T cells; host or cells: HEK293T
Procedure: as §1, §2

[10] = molecular target: T10, AURKC (Homo sapiens, UniProt Q9UQB9); conditions: 100% no effect, 0% complete tracer displacement, read-out: Tracer bound
T10 construct: Full-length kinase ORF (Promega, Madison, WI, USA) cloned in frame with a NanoLuc-vector was transfected into HEK293T cells; host or cells: HEK293T
Procedure: as §1, §2

[11] = molecular target: T11, RPS6KA3 (Homo sapiens, UniProt P51812); conditions: 100% no effect, 0% complete tracer displacement, read-out: Tracer bound
T11 construct: Full-length kinase ORF (Promega, Madison, WI, USA) cloned in frame with a NanoLuc-vector was transfected into HEK293T cells; host or cells: HEK293T
Procedure: as §1, §2

[12] = molecular target: T12, CSNK2A2 (Homo sapiens, UniProt P19784); conditions: 100% no effect, 0% complete tracer displacement, read-out: Tracer bound
T12 construct: Full-length kinase ORF (Promega, Madison, WI, USA) cloned in frame with a NanoLuc-vector was transfected into HEK293T cells; host or cells: HEK293T
Procedure: as §1, §2

[13] = molecular target: T13, SIK3 (Homo sapiens, UniProt Q9Y2K2); conditions: 1 µM; 100% no effect, 0% complete tracer displacement
T13 construct: Full-length kinase ORF (Promega, Madison, WI, USA) cloned in frame with a NanoLuc-vector was transfected into HEK293T cells; host or cells: HEK293T
Procedure: as §1, §2

[14] = molecular target: T14, RPS6KA2 (Homo sapiens, UniProt Q15349); conditions: 100% no effect, 0% complete tracer displacement, read-out: Tracer bound
T14 construct: Full-length kinase ORF (Promega, Madison, WI, USA) cloned in frame with a NanoLuc-vector was transfected into HEK293T cells; host or cells: HEK293T
Procedure: as §1, §2

[15] = molecular target: T15, SIK1 (Homo sapiens, UniProt P57059); conditions: 1 µM; 100% no effect, 0% complete tracer displacement
T15 construct: Full-length kinase ORF (Promega, Madison, WI, USA) cloned in frame with a NanoLuc-vector was transfected into HEK293T cells; host or cells: HEK293T
Procedure: as §1, §2

T6 sequence (Q16659 whole entry): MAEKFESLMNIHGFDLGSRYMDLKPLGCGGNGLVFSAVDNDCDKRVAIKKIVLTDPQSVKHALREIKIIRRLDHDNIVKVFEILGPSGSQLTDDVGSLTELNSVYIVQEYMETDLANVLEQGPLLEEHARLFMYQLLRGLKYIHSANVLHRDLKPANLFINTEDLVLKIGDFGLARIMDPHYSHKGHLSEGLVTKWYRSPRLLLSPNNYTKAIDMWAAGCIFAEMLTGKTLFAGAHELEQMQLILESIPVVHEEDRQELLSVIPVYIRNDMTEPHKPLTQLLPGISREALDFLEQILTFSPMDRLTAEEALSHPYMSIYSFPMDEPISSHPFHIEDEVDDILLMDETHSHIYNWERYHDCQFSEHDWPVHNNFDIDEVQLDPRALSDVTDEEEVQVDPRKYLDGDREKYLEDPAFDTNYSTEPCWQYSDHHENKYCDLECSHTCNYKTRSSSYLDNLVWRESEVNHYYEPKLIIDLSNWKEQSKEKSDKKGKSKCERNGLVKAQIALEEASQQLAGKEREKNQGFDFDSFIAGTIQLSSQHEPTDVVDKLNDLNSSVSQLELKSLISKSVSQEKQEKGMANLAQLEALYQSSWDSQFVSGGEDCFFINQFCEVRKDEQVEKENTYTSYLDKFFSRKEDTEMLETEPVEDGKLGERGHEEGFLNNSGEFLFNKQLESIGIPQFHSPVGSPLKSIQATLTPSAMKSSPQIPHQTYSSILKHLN
T3 sequence (Q8IVH8 whole entry): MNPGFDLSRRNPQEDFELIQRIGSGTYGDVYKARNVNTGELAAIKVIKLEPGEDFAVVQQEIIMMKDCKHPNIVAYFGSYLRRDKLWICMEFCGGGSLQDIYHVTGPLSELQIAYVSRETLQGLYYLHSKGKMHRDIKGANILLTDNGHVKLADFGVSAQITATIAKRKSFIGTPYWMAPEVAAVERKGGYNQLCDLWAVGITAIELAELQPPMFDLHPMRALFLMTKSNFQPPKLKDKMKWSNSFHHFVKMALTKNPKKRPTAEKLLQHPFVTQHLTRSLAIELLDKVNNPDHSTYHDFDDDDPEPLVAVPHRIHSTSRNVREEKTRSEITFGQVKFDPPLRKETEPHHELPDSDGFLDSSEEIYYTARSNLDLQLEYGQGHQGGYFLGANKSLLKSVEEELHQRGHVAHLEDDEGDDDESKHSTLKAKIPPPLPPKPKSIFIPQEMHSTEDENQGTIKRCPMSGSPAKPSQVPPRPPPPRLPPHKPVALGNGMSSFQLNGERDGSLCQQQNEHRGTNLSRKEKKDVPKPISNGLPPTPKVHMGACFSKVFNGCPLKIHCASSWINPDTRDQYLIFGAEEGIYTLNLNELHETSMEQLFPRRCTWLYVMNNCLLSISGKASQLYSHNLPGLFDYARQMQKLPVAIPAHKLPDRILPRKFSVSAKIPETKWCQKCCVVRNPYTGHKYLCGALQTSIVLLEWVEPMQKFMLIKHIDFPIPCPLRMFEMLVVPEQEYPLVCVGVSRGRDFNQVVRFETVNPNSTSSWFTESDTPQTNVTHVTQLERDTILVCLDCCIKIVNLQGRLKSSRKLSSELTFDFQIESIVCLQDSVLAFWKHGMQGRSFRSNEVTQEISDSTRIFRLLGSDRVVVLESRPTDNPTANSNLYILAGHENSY
T2 sequence (O95835 whole entry): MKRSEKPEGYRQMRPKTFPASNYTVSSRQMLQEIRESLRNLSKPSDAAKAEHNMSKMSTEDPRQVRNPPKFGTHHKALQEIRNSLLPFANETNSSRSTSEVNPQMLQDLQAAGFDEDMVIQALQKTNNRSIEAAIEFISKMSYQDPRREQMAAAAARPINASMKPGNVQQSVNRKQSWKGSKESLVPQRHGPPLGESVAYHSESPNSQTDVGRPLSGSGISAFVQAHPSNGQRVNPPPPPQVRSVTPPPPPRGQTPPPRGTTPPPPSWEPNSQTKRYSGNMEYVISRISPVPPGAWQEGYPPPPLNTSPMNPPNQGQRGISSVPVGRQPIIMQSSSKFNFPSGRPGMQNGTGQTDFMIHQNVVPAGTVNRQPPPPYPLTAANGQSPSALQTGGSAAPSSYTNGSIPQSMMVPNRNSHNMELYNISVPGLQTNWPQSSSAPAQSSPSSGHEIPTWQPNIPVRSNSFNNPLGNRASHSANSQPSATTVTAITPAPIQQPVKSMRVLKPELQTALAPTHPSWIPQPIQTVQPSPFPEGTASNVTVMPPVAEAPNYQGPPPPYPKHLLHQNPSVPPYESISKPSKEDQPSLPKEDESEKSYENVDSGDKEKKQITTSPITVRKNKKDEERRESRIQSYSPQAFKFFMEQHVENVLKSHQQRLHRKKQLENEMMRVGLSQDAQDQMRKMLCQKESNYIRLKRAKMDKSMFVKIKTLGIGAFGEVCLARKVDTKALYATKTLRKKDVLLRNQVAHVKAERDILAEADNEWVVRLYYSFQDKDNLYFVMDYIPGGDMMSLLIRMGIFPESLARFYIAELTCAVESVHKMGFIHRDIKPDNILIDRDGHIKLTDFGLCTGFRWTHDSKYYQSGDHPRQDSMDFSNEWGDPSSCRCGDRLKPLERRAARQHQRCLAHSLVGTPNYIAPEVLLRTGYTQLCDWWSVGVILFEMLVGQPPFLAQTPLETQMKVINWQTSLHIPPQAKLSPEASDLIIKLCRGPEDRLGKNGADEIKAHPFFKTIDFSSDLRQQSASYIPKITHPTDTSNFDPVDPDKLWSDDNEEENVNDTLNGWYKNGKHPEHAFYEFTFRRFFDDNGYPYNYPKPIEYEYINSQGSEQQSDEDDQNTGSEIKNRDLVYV
T13 sequence (Q9Y2K2 whole entry): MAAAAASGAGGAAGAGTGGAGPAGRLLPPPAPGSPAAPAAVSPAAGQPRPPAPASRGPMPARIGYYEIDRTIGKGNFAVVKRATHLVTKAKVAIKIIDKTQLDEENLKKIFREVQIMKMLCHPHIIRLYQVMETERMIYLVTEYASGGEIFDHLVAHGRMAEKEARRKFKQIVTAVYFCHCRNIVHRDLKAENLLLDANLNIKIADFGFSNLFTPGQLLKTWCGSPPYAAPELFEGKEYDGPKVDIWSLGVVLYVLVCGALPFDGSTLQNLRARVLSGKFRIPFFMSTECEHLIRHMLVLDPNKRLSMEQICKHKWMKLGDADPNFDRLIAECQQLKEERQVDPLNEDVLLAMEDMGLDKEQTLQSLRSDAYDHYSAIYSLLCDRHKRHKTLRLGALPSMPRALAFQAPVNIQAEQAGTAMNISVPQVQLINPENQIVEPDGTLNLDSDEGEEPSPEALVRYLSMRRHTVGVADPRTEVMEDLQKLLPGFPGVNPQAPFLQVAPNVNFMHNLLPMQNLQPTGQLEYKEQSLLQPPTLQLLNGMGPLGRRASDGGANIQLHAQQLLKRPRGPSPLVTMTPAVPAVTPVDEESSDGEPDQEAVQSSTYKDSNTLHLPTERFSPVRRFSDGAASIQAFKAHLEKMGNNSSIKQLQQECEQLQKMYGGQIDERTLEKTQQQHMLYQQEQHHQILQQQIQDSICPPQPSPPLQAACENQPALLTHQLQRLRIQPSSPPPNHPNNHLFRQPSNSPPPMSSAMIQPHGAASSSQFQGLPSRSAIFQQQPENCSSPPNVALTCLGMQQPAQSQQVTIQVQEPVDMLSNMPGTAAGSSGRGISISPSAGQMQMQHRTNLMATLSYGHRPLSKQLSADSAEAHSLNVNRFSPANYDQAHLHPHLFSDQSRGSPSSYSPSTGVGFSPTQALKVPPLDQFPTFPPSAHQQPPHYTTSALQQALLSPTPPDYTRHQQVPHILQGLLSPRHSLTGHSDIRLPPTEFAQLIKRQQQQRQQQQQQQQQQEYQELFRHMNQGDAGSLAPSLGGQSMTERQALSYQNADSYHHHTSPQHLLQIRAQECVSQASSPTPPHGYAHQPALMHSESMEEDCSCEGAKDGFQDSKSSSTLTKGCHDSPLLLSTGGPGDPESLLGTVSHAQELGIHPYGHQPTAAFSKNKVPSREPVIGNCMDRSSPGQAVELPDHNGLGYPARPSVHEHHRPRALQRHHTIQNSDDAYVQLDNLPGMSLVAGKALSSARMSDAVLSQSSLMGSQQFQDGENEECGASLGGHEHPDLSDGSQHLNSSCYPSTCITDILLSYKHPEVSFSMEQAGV
T15 sequence (P57059 whole entry): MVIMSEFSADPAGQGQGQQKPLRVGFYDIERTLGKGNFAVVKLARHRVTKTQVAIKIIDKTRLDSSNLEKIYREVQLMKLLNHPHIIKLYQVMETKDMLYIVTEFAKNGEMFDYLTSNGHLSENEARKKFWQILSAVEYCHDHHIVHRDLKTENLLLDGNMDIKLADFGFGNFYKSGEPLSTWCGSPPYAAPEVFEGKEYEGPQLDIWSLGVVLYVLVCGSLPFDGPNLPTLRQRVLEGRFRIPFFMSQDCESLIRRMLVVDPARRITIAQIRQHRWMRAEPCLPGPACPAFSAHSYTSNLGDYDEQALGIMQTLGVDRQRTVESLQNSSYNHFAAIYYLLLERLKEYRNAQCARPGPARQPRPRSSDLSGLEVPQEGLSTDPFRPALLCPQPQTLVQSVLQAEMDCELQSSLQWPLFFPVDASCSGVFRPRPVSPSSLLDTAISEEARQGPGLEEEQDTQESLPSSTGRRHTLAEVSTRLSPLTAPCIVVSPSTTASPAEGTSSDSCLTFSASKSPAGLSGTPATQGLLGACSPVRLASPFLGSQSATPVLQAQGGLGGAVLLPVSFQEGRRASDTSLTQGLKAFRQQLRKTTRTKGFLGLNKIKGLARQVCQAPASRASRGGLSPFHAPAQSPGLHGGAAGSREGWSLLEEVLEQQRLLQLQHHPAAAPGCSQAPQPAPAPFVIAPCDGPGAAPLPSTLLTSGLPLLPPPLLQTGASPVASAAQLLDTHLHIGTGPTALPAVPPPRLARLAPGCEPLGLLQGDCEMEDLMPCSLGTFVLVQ

## Cc1ncsc1-c1ccc([C@H](C)NC(=O)[C@@H]2C[C@@H](O)CN2C(=O)[C@@H](NC(=O)[C@H]2CC[C@H](C(=O)N3CCN(CCNC(=O)c4cc(Oc5ccc(NC(=O)Nc6cc(C(C)(C)C)on6)cc5)ccn4)CC3)CC2)C(C)(C)C)cc1 [MA191, 4-(4-(3-(5-(tert-Butyl)isoxazol-3-yl)ureido)phenoxy)-N-(2-(4-(trans-4-(((S)-1-((2S,4R)-4-hydroxy-2-(((S)-1-(4-(4-methylthiazol-5-yl)phenyl)ethyl)carbamoyl)pyrrolidin-1-yl)-3,3-dimethyl-1-oxobutan-2-yl)carbamoyl)cyclohexanecarbonyl)piperazin-1-yl)ethyl)picolinamide]
[1]
  remaining activity at 1 µM: 109%
[2]
  remaining activity at 1 µM: 97.8%
[3]
  Tracer bound: 91.1%
[4]
  remaining activity at 1 µM: 119%
[5]
  remaining activity at 1 µM: 54.8%
[6]
  remaining activity at 1 µM: 120%
[7]
  Tracer bound: 107.5%
[8]
  remaining activity at 1 µM: 106%
[9]
  remaining activity at 1 µM: 102%
[10]
  remaining activity at 1 µM: 110%
[11]
  remaining activity at 1 µM: 120%
[12]
  remaining activity at 1 µM: 114%
[13]
  Tracer bound: 106.3%
[14]
  remaining activity at 1 µM: 114%
[15]
  Tracer bound: 115.0%
